Laboratory results reported in US9492450B2, “Inhibition of dynamin related protein 1 to promote cell death” (University of Pittsburgh—of the Commonwealth System of …, priority 2011, dated 2016).

Assays:
MDA-MB-231 cells [1] = test: DNA content flow cytometry (propidium iodide): G2/M arrest and aneuploidy; type: cell-based, human; conditions: 5 μg/ml oligomycin, 5 μM FCCP or 10 μg/ml antimycin A, 24 h
MDA-MB-231 cells [2] = test: Caspase-3/7 activity assay (apoptosis); type: cell-based, human; conditions: 20 h
Procedure: FIG. 18. […] Multidrug-resistant MDA-MB-231 breast carcinoma cells were treated with increasing doses of mdivi-1 alone, a series of anticancer drugs alone, or the combination of increasing doses of anticancer drugs with 20 μM mdivi-1 for 20 h. Apoptosis was determined by measuring the activity of caspase-3/7. The drugs tested were platinum agent, cisplatin; antifolate agent, methotrexate; topoisomerase II inhibitor, etoposide; cytidine analog, gemcitabine; pyrimidine analog, 5-FU; alkylating agents, cyclophosphamide, MMS and MNNG; DNA crosslinking agent, MMC; DNA intercalating agent, doxorubicin; and antimitotic drug, paclitaxel.
FIG. 21A-F. Mdivi-1 enhances cisplatin sensitivity through Drp1-independent mechanisms. (A) Confirmation of the depletion of Drp1 in Drp1 knockout SV40-transformed MEF cells by western blot. (B) Drp1 wild-type (Drp1+/+) and knockout (Drp1−/−) MEF cells were treated as indicated for 20 h, and the number of apoptotic cells was determined by antibody recognizing cleaved caspase-3. […] (C) Drp1 wild-type and knockout MEF cells were treated with mdivi-1 for 24 h, and the cell number were determined by CyQuant assay. (D) OCR was measured after 1 h treatment of Drp1 wild-type and knockout MEF cells with DMSO or mdivi-1. (E) The combination effect of cisplatin with four analogs of mdivi-1. […]

Drp1 = conditions: as said in Cassidy-Stone et al., Dev Cell 14:193-204; cited from earlier work
[3] = Synergy with cisplatin, experiments not described

**Q.** With `CC[C@H]1/C=C/C=C/C[C@@H](C)[C@H](O)[C@@](C)(O)C(=O)[C@@H](C)[C@H](O)[C@@H](C)C(=O)[C@@H](C)[C@H](O)[C@@H](C)/C=C/C(=O)O[C@@H]2[C@H](C)[C@H](CC1)O[C@]1(CC[C@H](C)[C@H](C[C@@H](C)O)O1)[C@H]2C` [oligomycin] as the compound, how does the “G2/M cell cycle arrest and aneuploidy” value (MDA-MB-231 cells [1]) read?
**A.** The value was “did not induce G2/M cell cycle arrest and aneuploidy”.

**Q.** With antimycin A as the compound, how does the “G2/M cell cycle arrest and aneuploidy” value (MDA-MB-231 cells [1]) read?
**A.** The value was “did not induce G2/M cell cycle arrest and aneuploidy”.

**Q.** Which results are given for `COc1cc(-n2c(SC)nc3ccccc3c2=O)c(Cl)cc1Cl` [compound F]?
**A.** combination effect with cisplatin in enhancing apoptosis (MDA-MB-231 cells [2]; 20 μM of agents alone or in combination with cisplatin): abolished the synergism with cisplatin; efficacy in inhibiting Drp1 relative to mdivi-1 (Drp1): poor efficacy

**Q.** With `C[C@]1(c2nc3c(C(N)=O)cccc3[nH]2)CCCN1` [ABT-888] as the compound, how does the “apoptosis, alone and in combination with cisplatin” value (MDA-MB-231 cells [2]; series doses) read?
**A.** Its value is “resistant”.

**Q.** Which “G2/M cell cycle arrest and aneuploidy” value (MDA-MB-231 cells [1]) does the source give for `N#CC(C#N)=NNc1ccc(OC(F)(F)F)cc1` [FCCP] here?
**A.** The value was “did not induce G2/M cell cycle arrest and aneuploidy”.

**Q.** With `O=C(N/N=C/c1ccc(O)c(O)c1)c1cc2ccccc2cc1O` [Dynasore] as the compound, how does the “synergistic effect with cisplatin” value [3] read?
**A.** The value was “have not demonstrated a synergistic effect”.
